Tests used:
Assay in all cases: relative viability (nuclei count vs DMSO), 5 days (fraction); higher = more cells survive
[1] = system: NCI-H1734
Procedure, shortened: (§1)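 Each reported value is a median over duplicate plates. It expresses relative viability: treated-well nuclei count divided by vehicle-well nuclei count. Lung cancer cell lines in 1536-well plates were dosed by pin tool a day after seeding, alone with one drug or with a fixed anchor-drug dose plus five library-drug doses (not always all listed) in √10 steps, and nuclei were counted after 5 days.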

[2] = system: NCI-H1755
Procedure, shortened: as §1

[3] = system: NCI-H1792
Procedure, shortened: as §1

[4] = system: NCI-H1993
Procedure, shortened: as §1

[5] = system: NCI-H2405
Procedure, shortened: as §1

[6] = system: NCI-H358
Procedure, shortened: as §1

[7] = system: NCI-H460
Procedure, shortened: as §1

[8] = system: NCI-H522
Procedure, shortened: as §1

[9] = system: NCI-H596
Procedure, shortened: as §1

[10] = system: NCI-H647
Procedure, shortened: as §1

[11] = system: RERF-LC-KJ
Procedure, shortened: as §1

[12] = system: SW 900
Procedure, shortened: as §1

In the case of Cc1cn(-c2cc(NC(=O)c3ccc(C)c(Nc4nccc(-c5cccnc5)n4)c3)cc(C(F)(F)F)c2)cn1 [Nilotinib] + COc1cccc2cc(-c3nc([C@H]4CC[C@H](C(=O)O)CC4)n4ncnc(N)c34)[nH]c12 [OSI-027] (partner 0.5 µM), the relative viability ([1]; first compound 0.01 µM) is reported as 0.64, the relative viability ([1]; first compound 0.03162 µM) is reported as 0.435 and the relative viability ([1]; first compound 0.1 µM) is reported as 0.261. For the same compound, the relative viability ([2]; first compound 0.001 µM) was 0.792, the relative viability ([2]; first compound 0.003162 µM) was 0.617 and the relative viability ([2]; first compound 0.01 µM) was 0.74. The relative viability ([2]; first compound 0.03162 µM) was 0.553, the relative viability ([2]; first compound 0.1 µM) was 0.383 and the relative viability ([3]; first compound 0.001 µM) was 0.503. It also gave a relative viability ([3]; first compound 0.003162 µM) of 0.473, a relative viability ([3]; first compound 0.01 µM) of 0.667 and a relative viability ([3]; first compound 0.1 µM) of 0.555. The relative viability ([4]; first compound 0.001 µM) was 0.547, the relative viability ([4]; first compound 0.003162 µM) was 0.551 and the relative viability ([4]; first compound 0.01 µM) was 0.536. For the same compound, the relative viability ([4]; first compound 0.03162 µM) was 0.487, the relative viability ([4]; first compound 0.1 µM) was 0.562 and the relative viability ([5]; first compound 0.001 µM) was 0.594. For the same compound, the relative viability ([5]; first compound 0.003162 µM) was 0.617, the relative viability ([5]; first compound 0.01 µM) was 0.568 and the relative viability ([5]; first compound 0.03162 µM) was 0.609. For the same compound, the relative viability ([5]; first compound 0.1 µM) was 0.432, the relative viability ([6]; first compound 0.001 µM) was 0.708 and the relative viability ([6]; first compound 0.003162 µM) was 1.09. The relative viability ([6]; first compound 0.01 µM) was 0.655, the relative viability ([6]; first compound 0.03162 µM) was 0.666 and the relative viability ([6]; first compound 0.1 µM) was 0.252. For the same compound, the relative viability ([7]; first compound 0.001 µM) was 0.367, the relative viability ([7]; first compound 0.003162 µM) was 0.2 and the relative viability ([7]; first compound 0.01 µM) was 0.327. The relative viability ([7]; first compound 0.03162 µM) was 0.255, the relative viability ([7]; first compound 0.1 µM) was 0.0921 and the relative viability ([8]; first compound 0.001 µM) was 0.67. The relative viability ([8]; first compound 0.003162 µM) was 0.648, the relative viability ([8]; first compound 0.01 µM) was 0.754 and the relative viability ([8]; first compound 0.03162 µM) was 0.665. It also gave a relative viability ([8]; first compound 0.1 µM) of 0.61, a relative viability ([9]; first compound 0.001 µM) of 0.725 and a relative viability ([9]; first compound 0.003162 µM) of 0.655. The relative viability ([9]; first compound 0.01 µM) was 0.57, the relative viability ([9]; first compound 0.03162 µM) was 0.306 and the relative viability ([9]; first compound 0.1 µM) was 0.415. It also gave a relative viability ([10]; first compound 0.001 µM) of 0.638, a relative viability ([10]; first compound 0.003162 µM) of 0.749 and a relative viability ([10]; first compound 0.01 µM) of 0.762. For the same compound, the relative viability ([10]; first compound 0.03162 µM) was 0.355, the relative viability ([10]; first compound 0.1 µM) was 0.644 and the relative viability ([11]; first compound 0.001 µM) was 0.501. It also gave a relative viability ([11]; first compound 0.003162 µM) of 0.586, a relative viability ([11]; first compound 0.01 µM) of 0.53 and a relative viability ([11]; first compound 0.03162 µM) of 0.438. The relative viability ([11]; first compound 0.1 µM) was 0.374, the relative viability ([12]; first compound 0.001 µM) was 0.46 and the relative viability ([12]; first compound 0.003162 µM) was 0.492. For the same compound, the relative viability ([12]; first compound 0.01 µM) was 0.595, the relative viability ([12]; first compound 0.03162 µM) was 0.354 and the relative viability ([12]; first compound 0.1 µM) was 0.465.

Source: the supplement of paper PMC10307832
